Experiments:
Experiment in all cases: Test D
Assay type in all cases: in vivo
[1] = test system: deadnettle (Lamium amplexicaule); set-up: key: 0 is no effect; settings: PREEMERGENCE
[2] = test system: spring wheat (Triticum aestivum); set-up: key to Plant response rating, Spring Wheat: 0 is no effect; settings: PREEMERGENCE
[3] = test system: scentless chamomile (Matricaria inodora); settings: PREEMERGENCE
[4] = test system: galium 2 (Galium aparine); settings: POSTEMERGENCE
Protocol: (§1) Compounds evaluated in this test were formulated in a non-phytotoxic solvent mixture which included a surfactant and applied to plants that were in the 1- to 4-leaf stage (postemergence application). A mixture of sandy loam soil and greenhouse potting mix in a 60:40 ratio was used for the postemergence test.
(§2) Plantings of these crops and weed species were adjusted to produce plants of appropriate size for the postemergence test. All plant species were grown using normal greenhouse practices. Crop and weed species include alfalfa (Medicago sativa), annual bluegrass (Poa annua), blackgrass (Alopecurus myosuroides), black nightshade (Solanum nigra), chickweed (Stellaria media), common poppy (Papaver rhoeas), deadnettle (Lamium amplexicaule), downy brome (Bromus tectorum), field violet (Viola arvensis), galium 2 (Galium aparine), green foxtail (Setaria viridis), Italian ryegrass (Lolium multiflorum), jointed goatgrass (Aegilops cylindrica), kochia (Kochia scoparia), lambsquarters (Chenopodium album), lentil (Lens culinaris), littleseed canarygrass (Phalaris minor), pea (Pisum sativum), potato (Solanum tuberosum), rape (Brassica napus), redroot pigweed (Amaranthus retroflexus), Russian thistle (Salsola kali), scentless chamomile (Matricaria inodora), sorghum (Sorghum vulgare), spring barley (Hordeum vulgare), sugar beet (Beta vulgaris), sunflower (Helianthus annuus), ivyleaf speedwell (Veronica hederaefolia), spring wheat (Triticum aestivum), winter wheat (Triticum aestivum), wild buckwheat (Polygonum convolvulus), wild mustard (Sinapis arvensis), wild oat (Avena fatua), windgrass (Apera spica-venti) and winter barley (Hordeum vulgare).
(§3) Treated plants and untreated controls were maintained in a greenhouse for approximately 21 to 28 days, after which all treated plants were compared to untreated controls and visually evaluated. Plant response ratings, summarized in Table D, are based upon a 0 to 100 scale where 0 is no effect and 100 is complete control. A dash response (−) means no test result.

[5] = test system: redroot pigweed (Amaranthus retroflexus); settings: POSTEMERGENCE
Protocol: as §1, §2, §3

kochia (Kochia scoparia) = settings: POSTEMERGENCE
Protocol: as §1, §2, §3

[6] = test system: wild buckwheat (Polygonum convolvulus); settings: POSTEMERGENCE
Protocol: as §1, §2, §3

[7] = test system: lambsquarters (Chenopodium album); settings: POSTEMERGENCE
Protocol: as §1, §2, §3

[8] = test system: galium 2 (Galium aparine); set-up: key: 0 is no effect; 100 is complete control; settings: PREEMERGENCE
[9] = test system: redroot pigweed (Amaranthus retroflexus); set-up: key: 0 is no effect; 100 is complete control; settings: PREEMERGENCE
[10] = test system: black nightshade (Solanum nigra); set-up: key: 0 is no effect; 100 is complete control; settings: PREEMERGENCE
rape (Brassica napus) = test system: rape (Brassica napus); set-up: key: 0 is no effect; 100 is complete control; settings: PREEMERGENCE
[11] = test system: annual bluegrass (Poa annua); set-up: key: 0 is no effect; 100 is complete control; settings: PREEMERGENCE

| Compound | Plant response rating, Deadnettle ([1]; Rate 62 g/ha) | Plant response rating, Deadnettle ([1]; Rate 125 g/ha) | Plant response rating, Spring Wheat ([2]; Rate 62 g/ha) | Plant response rating, Spring Wheat ([2]; Rate 125 g/ha) | Plant response rating, Scentless chamo ([3]; Rate 62 g/ha) | Plant response rating, Galium ([4]; Rate 62 g/ha) | Plant response rating, Galium ([4]; Rate 125 g/ha) | Plant response rating, Redroot pigweed ([5]; Rate 62 g/ha) | Plant response rating, Redroot pigweed ([5]; Rate 125 g/ha) | Plant response rating, Kochia (kochia (Kochia scoparia); Rate 62 g/ha) | Plant response rating, Kochia (kochia (Kochia scoparia); Rate 125 g/ha) | Plant response rating, Wild buckwheat ([6]; Rate 62 g/ha) | Plant response rating, Wild buckwheat ([6]; Rate 125 g/ha) | Plant response rating, Lambsquarters ([7]; Rate 62 g/ha) | Plant response rating, Lambsquarters ([7]; Rate 125 g/ha) | Plant response rating, Galium ([8]; Rate 62 g/ha) | Plant response rating, Redroot pigweed ([9]; Rate 62 g/ha) | Plant response rating, Blk nightshade ([10]; Rate 62 g/ha) | Plant response rating, Rape (rape (Brassica napus); Rate 62 g/ha) | Plant response rating, Annual bluegras ([11]; Rate 62 g/ha) | further results |
| --- | --- | --- | --- | --- | --- | --- | --- | --- | --- | --- | --- | --- | --- | --- | --- | --- | --- | --- | --- | --- | --- |
| CCc1cnc(-c2ccc(C(F)(F)F)cc2)nc1Cc1cccc(C(F)(F)F)c1 [Compound 22] | 0 | 70 | 0 | 10 | 60 | 70 | 90 | 50 | 70 | 50 | 70 | 20 | 20 | 60 | 60 | 20 | 60 | 10 | 20 | 20 | Plant response rating, Deadnettle ([1]; Rate 250 g/ha): 10; Plant response rating, Spring Wheat ([2]; Rate 250 g/ha): 5; Plant response rating, Scentless chamo ([3]; Rate 125 g/ha): 70; Plant response rating, Scentless chamo ([3]; Rate 250 g/ha): 70; Plant response rating, Galium ([8]; Rate 125 g/ha): 100; Plant response rating, Galium ([8]; Rate 250 g/ha): 30; Plant response rating, Redroot pigweed ([9]; Rate 125 g/ha): 100; Plant response rating, Redroot pigweed ([9]; Rate 250 g/ha): 70; Plant response rating, Blk nightshade ([10]; Rate 125 g/ha): 60; Plant response rating, Blk nightshade ([10]; Rate 250 g/ha): 50; Plant response rating, Rape (rape (Brassica napus); Rate 125 g/ha): 100; Plant response rating, Rape (rape (Brassica napus); Rate 250 g/ha): 50; Plant response rating, Annual bluegras ([11]; Rate 125 g/ha): 100; Plant response rating, Annual bluegras ([11]; Rate 250 g/ha): 50 |
| Cc1cnc(-n2cnc(C(F)(F)F)n2)nc1Cn1ccc(C(F)(F)F)n1 [Compound 51] | 80 | – | 70 | – | 70 | – | – | – | – | – | – | – | – | – | – | 100 | 70 | 95 | 100 | 100 | Plant response rating, Deadnettle ([1]; Rate 31 g/ha): 80; Plant response rating, Spring Wheat ([2]; Rate 31 g/ha): 60; Plant response rating, Scentless chamo ([3]; Rate 31 g/ha): 65; Plant response rating, Galium ([8]; Rate 31 g/ha): 100; Plant response rating, Redroot pigweed ([9]; Rate 31 g/ha): 70; Plant response rating, Blk nightshade ([10]; Rate 31 g/ha): 100; Plant response rating, Rape (rape (Brassica napus); Rate 31 g/ha): 100; Plant response rating, Annual bluegras ([11]; Rate 31 g/ha): 85 |
| Cc1cnc(-n2ccc(C(F)(F)F)n2)nc1Cn1ccc(C(F)(F)F)n1 [Compound 52] | 70 | 90 | 70 | 70 | – | 65 | 60 | 60 | 70 | 70 | 70 | 70 | 80 | 80 | 80 | – | 90 | 40 | 60 | 100 | Plant response rating, Deadnettle ([1]; Rate 31 g/ha): 50; Plant response rating, Spring Wheat ([2]; Rate 31 g/ha): 60; Plant response rating, Galium ([4]; Rate 16 g/ha): 40; Plant response rating, Galium ([4]; Rate 31 g/ha): 50; Plant response rating, Redroot pigweed ([5]; Rate 16 g/ha): 45; Plant response rating, Redroot pigweed ([5]; Rate 31 g/ha): 60; Plant response rating, Kochia (kochia (Kochia scoparia); Rate 16 g/ha): 70; Plant response rating, Kochia (kochia (Kochia scoparia); Rate 31 g/ha): 70; Plant response rating, Wild buckwheat ([6]; Rate 16 g/ha): 60; Plant response rating, Wild buckwheat ([6]; Rate 31 g/ha): 50; Plant response rating, Lambsquarters ([7]; Rate 16 g/ha): 70; Plant response rating, Lambsquarters ([7]; Rate 31 g/ha): 80; Plant response rating, Redroot pigweed ([9]; Rate 31 g/ha): 90; Plant response rating, Redroot pigweed ([9]; Rate 125 g/ha): 100; Plant response rating, Blk nightshade ([10]; Rate 31 g/ha): 10; Plant response rating, Blk nightshade ([10]; Rate 125 g/ha): 90; Plant response rating, Rape (rape (Brassica napus); Rate 31 g/ha): 50; Plant response rating, Rape (rape (Brassica napus); Rate 125 g/ha): 100; Plant response rating, Annual bluegras ([11]; Rate 31 g/ha): 50; Plant response rating, Annual bluegras ([11]; Rate 125 g/ha): 100 |

Reference: patent publication US6525001B1, “Substituted pyrimidine and pyridine herbicides” (Mid-American Commercialization Corporation, priority 1997, dated 2003)
